Values joined by “and” are separate entries in the source; they are usually repeats but may differ in a detail not shown here. Equal entries are not always repeated. Ends that are not written are not given here.
Assays:
L. monocytogenes 10403S = assay: Broth MIC, Gram positive; type: cell-based; conditions: broth microtitre, BSA pre-treated plates, 10^5 cfu ml^−1, 2-fold dilutions from 7.5 µM, 16 h 37°C, purified peptide, mean of triplicate assays
Procedure: (§1) Minimum inhibitory concentration determinations for Gram positive organisms were carried out in triplicate in microtitre plates (Sarstedt). 96 well microtitre plates were pre-treated with bovine serum albumin (BSA) prior to addition of the peptides. Briefly, to each well of the microtitre plate 200 µL of phosphate buffered saline (PBS) containing 1% (w/v) bovine serum albumin (PBS/BSA) was added and incubated at 37°C for 30 min. The wells were washed with 200 µL PBS and allowed to dry. Target strains were grown overnight in the appropriate conditions and medium, subcultured into fresh broth and allowed to grow to an OD600 of ∼0.5, diluted to a final concentration of 10^5 cfu ml^−1 in a volume of 0.2 ml. Wild type nisin and nisin mutant peptides were adjusted to a 10 µM (S. mitis, B. cereus), 7.5 µM (L. monocytogenes), 5 µM (hVISA) 2.5 µM (MRSA, E. durans), or 500 nM (L. lactis strains) starting concentration and 2-fold serial dilutions of each peptide were added to the target strain.

[1] = tested on: hVISA 32679 (heterogenous Vancomycin-intermediate S. aureus); assay: Broth MIC, Gram positive; type: cell-based; conditions: broth microtitre, BSA pre-treated plates, 10^5 cfu ml^−1, 2-fold dilutions from 5 µM, 16 h 37°C, purified peptide, mean of triplicate assays
Procedure: as §1

L. lactis HP = assay: Broth MIC, Gram positive; type: cell-based; conditions: broth microtitre, BSA pre-treated plates, 10^5 cfu ml^−1, 2-fold dilutions from 500 nM, 16 h, purified peptide, mean of triplicate assays
Procedure: as §1

[2] = tested on: ST 530 (Methicillin resistant S. aureus); assay: Broth MIC, Gram positive; type: cell-based; conditions: broth microtitre, BSA pre-treated plates, 10^5 cfu ml^−1, 2-fold dilutions from 2.5 µM, 16 h 37°C, purified peptide, mean of triplicate assays
Procedure: as §1

L. monocytogenes LO28 [3] = assay: Broth MIC, Gram positive; type: cell-based; conditions: broth microtitre, BSA pre-treated plates, 10^5 cfu ml^−1, 2-fold dilutions from 7.5 µM, 16 h 37°C, purified peptide, mean of triplicate assays
Procedure: as §1

[4] = tested on: ST 528 (Methicillin resistant S. aureus); assay: Broth MIC, Gram positive; type: cell-based; conditions: broth microtitre, BSA pre-treated plates, 10^5 cfu ml^−1, 2-fold dilutions from 2.5 µM, 16 h 37°C, purified peptide, mean of triplicate assays
Procedure: as §1

L. lactis MG1363 = assay: Broth MIC, Gram positive; type: cell-based; conditions: broth microtitre, BSA pre-treated plates, 10^5 cfu ml^−1, 2-fold dilutions from 500 nM, 16 h, purified peptide, mean of triplicate assays
Procedure: as §1

S. aureus RF122 [5] = assay: Broth MIC, Gram positive; type: cell-based; conditions: broth microtitre, BSA pre-treated plates, 10^5 cfu ml^−1, 2-fold dilutions, 16 h 37°C, purified peptide, mean of triplicate assays
Procedure: as §1

L. monocytogenes LO28 [6] = assay: Deferred antagonism assay of producing strains; type: cell-based; conditions: L. monocytogenes LO28, data not shown
Procedure: (§2) Deferred antagonism assays were performed by replicating strains on GM17 agar plates and allowing them to grow overnight before overlaying with either GM17/BHI/TSB-YE/MH agar (0.75% w/v agar) seeded with the appropriate indicator strain. For higher throughput screening of the S29X bank, deferred antagonism assays were performed by replicating strains using a 96 pin replicator (Boekel) or spotting 5 µl of a fresh overnight culture on GM17 agar plates and allowing them to grow overnight. Following overnight growth the strains were subjected to UV radiation for 30 minutes prior to overlaying with either GM17/BHI/TS/MH agar (0.75% w/v agar) seeded with the appropriate indicator.

S. aureus SA113 = assay: Deferred antagonism assay of producing strains; type: cell-based; conditions: zone of inhibition around producer colony
Procedure: as §2

S. aureus RF122 [7] = assay: Deferred antagonism assay of producing strains; type: cell-based
Procedure: as §2

S. typhimurium UK-1 = assay: Kill curve analysis; type: cell-based, Salmonella enterica serovar Typhimurium; conditions: 33 mg/L purified peptide, 2×10^5 cfu ml^−1, 37°C for 1 hour
Procedure: Using purified peptide in each case, 10 mM sodium phosphate buffer washed C. sakazakii, E. coli and Salmonella strains were diluted to a final concentration of 2×10^5 cfu ml^−1 and were exposed to nisin A, S29G and S29A at a concentration of 33 mg/L. Following incubation at 37°C for 1 hour, bacterial growth was monitored through plate counts.

C. sakazakii DPC 6440 = assay: Agarose gel diffusion assay, peptide alone or with polymyxin B nonapeptide (PMBN); type: cell-based, Cronobacter sakazakii
Procedure: Agarose-based deferred antagonism assays were carried out as follows: GM17/LB (0.03%) underlay was prepared with 10 mM sodium phosphate buffer (SPB) at pH 7.4 to which was added agarose (1% w/v agarose), autoclaved and cooled to 50°C. Bacteria grown to mid-logarithmic phase were harvested by centrifugation and washed with 10 mM SPB at pH 7.4. Bacteria were then added to 15 mls cooled underlay medium to reach a concentration of 2×10^7 colony-forming units (CFU)/mL. The inoculated medium was rapidly transferred into sterile Petri plates, allowed to solidify and dried. Wells (4.6 mm in diameter) were then made in the seeded plates. 10 µl volumes of cell-free supernatant from overnight nisin derivative producing cultures or resuspended purified peptides were then added to the wells and the plates incubated at 30°C (L. lactis) or 37°C (Gram positive strains) or RT (Gram negative strains) for 3 hours. Polymyxin B (Sigma Aldrich) was used at a concentration of 20 µg/ml. The plates were then overlaid with 15 mls of autoclaved double strength GM17 (L. lactis) or LB (Gram negatives) agarose (1% w/v agarose) overlay medium precooled to 50°C. The plates were then incubated overnight at the relevant temperature.
Polymyxin B (PMB) is a cyclic lipodecapaptide produced by bacteria of the genus Paenibacillus that acts primarily on the Gram negative cell wall, leading to rapid permeability changes in the cytoplasmic membrane and ultimately cell death. […] To that end, C. sakazakii DPC 6440 cells were treated with purified nisin A, S29G and S29A peptides alone (30 µM) or in combination with PMBN at a concentration of 20 µg/ml and determined the antimicrobial activity by agarose gel diffusion assay (Fig. 5). […] When used in combination with PMBN, a substantial synergistic effect was clearly evident (Fig. 5) but in this instance no significant difference in efficacy was observed between nisin A or either of the derivatives S29A or S29G.

Lactococcus lactis HP = assay: Agarose-based assay of cell-free supernatants of S29X producing strains
In short: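 Deferred antagonism in 1% agarose underlay (10 mM sodium phosphate, pH 7.4) seeded with mid-log indicator bacteria at 2×10^7 CFU/mL. Cell-free supernatant or purified peptide placed in 4.6 mm wells, held 3 h at 30 °C (L. lactis), 37 °C (Gram-positives) or RT (Gram-negatives). Plates were then overlaid with GM17 or LB agarose and incubated overnight.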

E. durans 5133 = assay: Broth MIC, Gram positive; type: cell-based, Enterococcus durans; conditions: broth microtitre, BSA pre-treated plates, 10^5 cfu ml^−1, 2-fold dilutions from 2.5 µM, 16 h 37°C, purified peptide, mean of triplicate assays
Procedure: as §1

S. mitis UCC5000 = assay: Broth MIC, Gram positive; type: cell-based, Streptococcus mitis; conditions: broth microtitre, BSA pre-treated plates, 10^5 cfu ml^−1, 2-fold dilutions from 10 µM, 16 h 37°C, purified peptide, mean of triplicate assays
Procedure: as §1

For “S29G: bioengineered nisin A derivative with a serine to glycine change at position 29 (ITSISLCTPGCKTGALMGCNMKTATCHCGIHVSK; thioether (positions not given here); not fully specified (residues 2, 5, 33, bridges); UniProt P13068 24-57, looked up, variant S29G)”, the MIC (L. monocytogenes 10403S) was 6.28 mg/L and 1.875 µM, the MIC [1] was 2 mg/L and 0.625 µM and the MIC (L. lactis HP) was 0.1 mg/L and 0.031 µM. The MIC [2] was 0.26 mg/L and 0.078 µM, the MIC (L. monocytogenes LO28 [3]) was 6.28 mg/L and 1.875 µM and the MIC [4] was 0.26 mg/L and 0.078 µM. For the same substance, the MIC (L. lactis MG1363) was 0.4 mg/L and 0.125 µM, the MIC (S. aureus RF122 [5]) was 0.52 mg/L and 0.156 µM and the “Bioactivity of producer relative to nisin A producer” value (L. monocytogenes LO28 [6]) was “comparable to that of nisin A”. The “Bioactivity of producer relative to nisin A producer” value (S. aureus SA113) was “enhanced activity”, the “Bioactivity of producer relative to nisin A producer” value (S. aureus RF122 [7]) was “increases the bioactivity” and the “Killing compared with nisin A (plate counts)” value (S. typhimurium UK-1) was “greater activity than wildtype nisin A”. The “Total area of inhibitory zone, peptide alone” value (C. sakazakii DPC 6440; purified peptide 30 µM alone) was 48.2±0.7 mm^2, the “Total area of inhibitory zone, peptide + PMBN” value (C. sakazakii DPC 6440; purified peptide 30 µM in combination with polymyxin B nonapeptide (PMBN) 20 µg/ml) was 118.6±5.0 mm^2 and the “Zone Diameter (mm)” value (Lactococcus lactis HP; agarose (1%) GM17 assay, 10 µl cell-free supernatant of overnight producing culture in 4.6 mm wells, L. lactis HP, 30°C) was 15.4±0.5 mm. For the same substance, the “% difference (zone relative to wild type)” value (Lactococcus lactis HP; agarose assay of supernatants against L. lactis HP, wild type serine = 100) was 101%, the MIC (E. durans 5133) was 0.26 mg/L and 0.078 µM and the MIC (S. mitis UCC5000) was 8.38 mg/L and 2.5 µM.
